{"source": "patent US20250339426A1", "about": "“GCN2 MODULATOR FOR TREATING CANCER” (HIBERCELL, INC., priority 2022, published 2025)", "key": {"[1]": {"tested_on": "Ki67 positive cells in DLD-1 tumor sections", "test": "IHC staining of Ki67 in DLD-1 tumor sections", "type": "in vivo, mice", "procedure": "DLD-1 (human colorectal cancer cells): Female 6-8 weeks old BALB/c nude mice were inoculated subcutaneously on the right flank with DLD-1 tumor cells (5×10^6) in 0.1 ml of RPMI1640 medium without serum for tumor development. The treatments were started when the mean tumor size reached approximately 195 mm^3 at Day 7 post inoculation and continued until end of study by twice daily oral gavage dosing of HC-7366 at listed doses (vehicle, 0.3 mg/kg HC-7366, 1 mg/kg HC-7366, 3 mg/kg HC-7366, 10 mg/kg HC-7366, or 30 mg/kg HC-7366, FIG. 10). For the time course study, tumors were harvested at Days 4, 7 and 14. Tumors were then used for IHC and RNAseq experiments (see Example 21).\nDLD-1 tumor bearing mice were treated with HC-7366 at 0.3, 1, 3, 10 and 30 mg/kg twice a day for 14 days. Tumors were harvested for RNAseq analysis at Day 4, Day 7 and Day 14 (FIG. 128)."}, "[2]": {"tested_on": "oxidative phosphorylation pathway in FaDu tumors", "test": "Non-targeted proteomic analysis of FaDu tumors", "type": "in vivo, mice", "procedure": "FaDu tumor bearing mice were treated with vehicle or HC-7366 (1, 3, or 30 mg/kg) twice a day orally for three days, and on the morning of Day 4 an AM dose was administered and tumors and plasma were collected 1 hr after dose. Tumor and plasma samples were extracted and split into equal parts for analysis on LC/MS/MS and Polar LC platforms. Proprietary software was used to match ions to an in-house library of standards for metabolite identification and for metabolite quantitation by peak area integration (Metabolon). Proteomic analysis on tumors was performed at MS Bioworks. The equivalent of 3 μg of peptide from each pooled fraction was analyzed by nano LC-MS/MS with a Waters M-Class HPLC system interfaced to a ThermoFisher Fusion Lumos mass spectrometer. Histograms show metabolite levels of treatment groups normalized to vehicle control (FIGS. 115-122).\nFaDu tumor bearing mice were treated with HC-7366 at 3 and 30 mg/kg twice a day for four days. Tumors were harvested for non-targeted proteomic analysis."}, "[3]": {"tested_on": "786-O (human renal cell carcinoma cancer cells)", "test": "In vivo tumor growth inhibition, 786-O xenograft", "parameters": "species or system BALB/c nude mice", "settings": "HC-7366 single agent, 3 mg/kg twice daily (FIG. 58)", "procedure": "786-O (human renal cell carcinoma cancer cells): Female 6-8 weeks old BALB/c nude mice were inoculated subcutaneously on the right flank with 786-O tumor cells (5×10^6) in 0.1 ml of RPMI1640 medium without serum for tumor development. […] For the DC101 combination study, DC101 (murine monoclonal anti-VEGFR2 antibody) was dosed at 15 mg/kg twice a week by intraperitoneal injection.\n(§1) [formula] • 2.2.2 Tumor Measurements: The measurement of tumor size was conducted three times weekly with a caliper and recorded. The tumor volume (mm^3) was estimated using the formula: TV=a×b^2/2, where “a” and “b” is long and short diameters of a tumor, respectively. Tumor volume was calculated using the formula [tumor volume (mm^3)=π/6×length×width^2).\n(§2) Regression was calculated using the formula=100×ΔT/T initial, if ΔT<0. Animals with 0 mm^3 tumor volume (no measurable tumor) for three consecutive measurements were considered as complete responders and animals with 50% tumor regressions were partial responders.\nFemale 6-8 weeks old BALB/c nude mice were inoculated subcutaneously on the right flank with 786-O tumor cells (5×10^6) in 0.1 ml of RPMI1640 medium without serum for tumor development (see Example 6). […]"}, "[4]": {"test": "Tolerability by body weight in tumor-bearing mice", "type": "in vivo", "settings": "NCI-H1975 study", "procedure": "For routine monitoring, all study animals were monitored not only for tumor growth but also behavior such as mobility, food and water consumption (by cage side checking only), body weight (BW), eye/hair matting and any other abnormal effect. Any mortality and/or abnormal clinical signs were recorded. • 2.2.1 Body Weight (BW): Body weights of all animals were measured and recorded three times weekly throughout the study. Body weight change, expressed in %, is calculated using the following formula: […]"}, "[5]": {"tested_on": "OCI-AML2 (human AML cancer cells)", "test": "In vivo tumor growth inhibition, OCI-AML2 xenograft", "parameters": "species or system NOD SCID mice", "procedure": "OCI-AML2 (human AML cancer cells): Female 6-8 weeks old NOD SCID mice were inoculated subcutaneously on the right flank with OCI-AML2 tumor cells (5×10^6) in RPMI 1640 without serum for tumor development. The treatments were started when the mean tumor size reached approximately 149 mm^3 at Day 7 after cell inoculation and continued until end of study by twice daily oral gavage dosing of HC-7366 at listed doses (vehicle, 0.3 mg/kg HC-7366, 1 mg/kg HC-7366, 3 mg/kg HC-7366, 10 mg/kg HC-7366, or 30 mg/kg HC-7366, FIG. 19).\nas §1, §2"}}}
{"smiles": "CNC(=O)c1ncn2cc(-c3c(F)ccc(NS(=O)(=O)c4cc(Cl)cnc4OC)c3F)ncc12", "note": "[HC-7366, 6-(3-((5-chloro-2-methoxypyridine)-3-sulfonamido)-2,6-difluorophenyl)-N-methylimidazo[1,5-a]pyrazine-1-carboxamide]", "values": [{"measurement": "Ki67 positive cancer cells", "setting": "[1]; Day 4, 0.3, 10 or 30 mg/kg", "value": "not at the less efficacious doses"}, {"measurement": "Ki67 positive cancer cells", "setting": "[1]; Day 4, 1 and 3 mg/kg", "value": "significantly reduced"}, {"measurement": "oxidative phosphorylation pathway, pathway analysis (IPA)", "setting": "[2]; 3 mg/kg twice a day, four days", "value": "strong repression"}, {"measurement": "protein subunits of the electron transport chain", "setting": "[2]; 3 mg/kg, relative to vehicle", "value": "decreased"}, {"measurement": "TGI %", "setting": "[3]", "value": "~78", "unit": "%"}, {"measurement": "body weight loss", "setting": "[4]", "value": "No treatment related body weight loss"}, {"measurement": "TGI", "setting": "[5]; 10 mg/kg twice daily oral", "value": "about 47%"}, {"measurement": "TGI", "setting": "[5]; 30 mg/kg twice daily oral", "value": "~51", "unit": "%"}]}
